Source: patent US20220403326A1, “MEDIA FORMULATIONS AND METHODS FOR PRODUCING PROGENITOR T CELLS” (priority 2019, published 2022)

What was measured:
Format in all cases: cell-based, human
HSPCs [1] = experiment: CFSE proliferation assay of HSPCs on DL4+VCAM-1
Procedure: To track the number of cell divisions, cells were stained with 2.5 μM CellTrace™ CFSE (ThermoFisher) in PBS and incubated at 37° C. for 8 minutes. CFSE was quenched by adding 5 times the volume of IMDM+BIT and incubating at 37° C. for 5 minutes. Cells were then resuspended in fresh media and seeded on DL4+VCAM-1 for culture. For analysis, cells were collected and stained for CD34, CD7, and CD5 surface markers as described above and analyzed using flow cytometry. Proliferation was modelled using FlowJo™ software and further analysis was performed with R.
To track the number of cell divisions in response to each of IL-3 and TNFα, the HSPCs were first stained with carboxyfluorescein succinimidyl ester (CFSE). IL-3 or TNFα were added on day 0 and the number of divisions of each cell was analyzed on days 2, 3, 4 and 5.

CD34+ HSPCs [2] = experiment: Timed addition of TNFα (day 0, 1, 2 or 3), 7-day culture on DL4+VCAM-1; settings: late addition of TNFα; day 7
Procedure: (§1) For experiments 7 days or longer, HSPCs were seeded at 63-125 cells/mm^2 (equivalent to 2000-4000 cells/well of a 96-well plate) on DL4+VCAM-1-coated surfaces. Experiments shorter than 7 days (CFSE and qPCR) were seeded at 470-780 cells/mm^2 (equivalent to 15,000-25,000 cells/well of a 96-well plate) to provide enough cells for analysis. Cells were cultured in 100 μl/well (32 μl/well for 384-well plate) of Iscove's Modified Eagle Medium (IMDM) supplemented with 20% bovine serum albumin, insulin, and transferrin (BIT 9500) serum substitute (Stemcell Technologies), 1 μg/ml low-density lipoprotein (LDL; Stemcell Technologies), 60 μM ascorbic acid (Sigma), 24 μM 2-mercaptoethanol (Sigma), and 1% penicillin-streptomycin (P/S; Invitrogen). The cytokines used in control condition were SCF, FLT3L, TPO, and IL-7 (also known as the “4F cytokines”, all of which were obtained from R&D Systems), each at a concentration of 20 ng/ml or 100 ng/ml as indicated in the text. All other cytokines were purchased from R&D Systems and used in the combinations and concentrations indicated in the text. For certain experiments, the γ-secretase inhibitor (2S)-N-[(3,5-Difluorophenyl)acetyl]-L-alanyl-2-phenyl] glycine 1,1-dimethylethyl ester (DAPT) or dimethyl sulfoxide (DMSO) was added to media at the concentrations indicated in the text. […]

CD34+ HSPCs [3] = experiment: γ-secretase inhibitor (GSI) titration, 14-day culture on DL4+VCAM-1; settings: increasing concentrations of GSI; 14 days
Procedure: as §1

HSPCs [4] = experiment: DL4 coating concentration titration, 14-day culture, with or without TNFα; settings: lowest DL4 concentration tested; 14 days; with VCAM-1
Procedure: Tissue culture 96-well plates were coated with DL4-Fc and VCAM-1-Fc (R&D Systems) overnight at 4° C. or for 3-4 hours at room temperature. To coat, DL4 and VCAM-1 were diluted to 15 μg/ml and 2.5 μg/ml, respectively, in 50 μl of phosphate-buffered saline (PBS), resulting in a coating concentration of approximately 24 ng/mm2 of DL4-Fc and 4 ng/mm2 of VCAM-1-Fc. For titration experiments, the concentration of DL4 or VCAM-1 was adjusted accordingly while maintaining a 50 μl volume of PBS. Experiments using 384-well plates scaled were coated similarly but with 16 μl of PBS. Wells were washed once with PBS prior to seeding cells to remove unbound DL4-Fc protein that inhibits Notch signaling.^6
In parallel with the Notch pathway inhibition experiment described above, HSPCs were also seeded on DL4+VCAM-1 for 14 days with decreasing concentrations of DL4 (FIG. 4d). […] Representative flow cytometry plots showing differential proT cell induction with decreasing DL4 concentration in the presence or absence of TNFα are shown in FIG. 4f.

CD34+ HSPCs [5] = experiment: Surface expression of CD117, CD123 and CD127 after 24 hours of TNFα stimulation; settings: TNFα stimulation for 24 hours
Procedure: Prior to analysis via flow cytometry, adherent cells were collected from DL4+VCAM-1 surfaces using vigorous pipetting or TrypLE Express Enzyme (ThermoFisher) for 5 minutes at 37° C. Afterwards, cells were rinsed twice with Hanks Balanced Salt Solution (ThermoFisher) plus 2% FBS (HF). Surface antibodies were stained at 1:100-1:300 in HF at room temperature for 15 minutes. Cells were then rinsed once with HF and resuspended in HF with 1:1000 7-AAD to exclude dead cells. Data was acquired with a BD Fortessa™ and compensation and gating was performed with FlowJo™ software and further analysis with the R programming language (version 3.3.2).
Next, the expression of CD117 (c-kit; SCF receptor), CD123 (IL-3 receptor) and CD127 (IL-7 receptor) on CD34+ HSPCs was evaluated in the presence or absence of TNFα stimulation for 24 hours.

TNFα
proportion of proT2 (CD34+CD7+CD5+) cells (HSPCs [1]; day 5): higher proportion of proT2 cells | upregulation of CD7 (HSPCs [1]; days 2-5): slow to upregulate CD7 | CD7+ lymphoid cells (CD34+ HSPCs [2]): decrease in CD7+ lymphoid cells | CD14/33+ myeloid lineage cells (CD34+ HSPCs [2]): increase in CD14/33+ myeloid lineage cells | CD7+CD5+ proT cell generation under Notch inhibition (CD34+ HSPCs [3]): capable of maintaining CD7+CD5+ proT cell generation with a higher concentration of GSI than the control condition | DL4 coating concentration down to which CD7+CD5+ proT cell development is maintained (HSPCs [4]): ≤ 2 ng/mm^2 | frequency of CD123+ cells (CD34+ HSPCs [5]): significant increase | median fluorescent intensity (MFI) of CD123 (CD34+ HSPCs [5]): increase in the median fluorescent intensity
